Data published in US20200377496A1, “INDOLE AND BENZIMIDAZOLE DERIVATIVES AS DUAL 5-HT2A and 5-HT6 RECEPTOR ANTAGONISTS” (ADAMED PHARMA, S.A., priority 2018, published 2020).
Like-named read-outs stand apart in the source and are kept apart here.

How the values were obtained:
5-HT6 receptors [1] = biological target: T1, 5-HT6 receptors (Homo sapiens, UniProt P50406); assay: 5-HT6 receptor binding assay ([3H]-LSD radioligand); conditions: membranes from CHO-K1 cells with human 5-HT6 receptor, [3H]-LSD 1 nM
T1 sequence (P50406 whole entry): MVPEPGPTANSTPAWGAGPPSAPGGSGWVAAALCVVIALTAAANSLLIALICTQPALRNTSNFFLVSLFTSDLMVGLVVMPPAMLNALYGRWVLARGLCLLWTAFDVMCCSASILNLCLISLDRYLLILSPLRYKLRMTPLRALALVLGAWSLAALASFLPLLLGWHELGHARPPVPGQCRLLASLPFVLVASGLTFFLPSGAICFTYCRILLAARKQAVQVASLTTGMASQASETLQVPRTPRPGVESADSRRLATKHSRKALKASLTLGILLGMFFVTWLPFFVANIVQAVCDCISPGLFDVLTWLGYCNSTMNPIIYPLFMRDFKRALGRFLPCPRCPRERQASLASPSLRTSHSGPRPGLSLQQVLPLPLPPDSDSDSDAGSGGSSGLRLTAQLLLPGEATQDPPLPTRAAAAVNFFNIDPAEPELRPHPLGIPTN
Description: (§1) Preparation of Solutions of Test and Reference Compounds.
(§2) 1 mM stock solutions of tested compounds were prepared in DMSO. Serial dilutions of compounds were prepared in 96-well microplate in assay buffers using automated pipetting system epMotion 5070 (Eppendorf). Each compound was tested in 10 concentrations from 1.0E-6 to 1.0E-11 M (final concentration).
5-HT6 Receptor Binding Assay.
Radioligand binding was performed using membranes from CHO-K1 cells stably transfected with the human 5-HT6 receptor (PerkinElmer). All assays were carried out in duplicates. 50 μl working solution of the tested compounds, 50 μl [3H]-LSD (final concentration 1 nM) and 150 μl diluted membranes (8 μg protein per well) prepared in assay buffer (50 mM Tris, pH 7.4, 10 mM MgCl2, 0.1 mM EDTA) were transferred to polypropylene 96 well microplate using 96-wells pipetting station Rainin Liquidator (MettlerToledo). Methiothepin (10 μM) was used to define nonspecific binding. Microplate was covered with a sealing tape, mixed and incubated for 60 minutes at 37° C. The reaction was terminated by rapid filtration through GF/A filter mate presoaked with 0.5% polyethyleneimine for 30 minutes. Ten rapid washes with 200 μl 50 mM Tris buffer (4° C., pH 7.4) were performed using automated harvester system Harvester-96 MACH III FM (Tomtec). The filter mates were dried at 37° C. in forced air fan incubator and then solid scintilator MeltiLex was melted on filter mates at 90° C. for 5 minutes. Radioactivity was counted in MicroBeta2 scintillation counter (PerkinElmer). Data were fitted to a one-site curve-fitting equation with Prism 6 (GraphPad Software) and Ki values were estimated from the Cheng-Prusoff equation.

human 5-HT2A receptor = human 5-HT2A receptor (Homo sapiens, UniProt P28223); assay: 5-HT2A receptor binding assay ([3H]-ketanserin radioligand)
Sequence of human 5-HT2A receptor (P28223 whole entry): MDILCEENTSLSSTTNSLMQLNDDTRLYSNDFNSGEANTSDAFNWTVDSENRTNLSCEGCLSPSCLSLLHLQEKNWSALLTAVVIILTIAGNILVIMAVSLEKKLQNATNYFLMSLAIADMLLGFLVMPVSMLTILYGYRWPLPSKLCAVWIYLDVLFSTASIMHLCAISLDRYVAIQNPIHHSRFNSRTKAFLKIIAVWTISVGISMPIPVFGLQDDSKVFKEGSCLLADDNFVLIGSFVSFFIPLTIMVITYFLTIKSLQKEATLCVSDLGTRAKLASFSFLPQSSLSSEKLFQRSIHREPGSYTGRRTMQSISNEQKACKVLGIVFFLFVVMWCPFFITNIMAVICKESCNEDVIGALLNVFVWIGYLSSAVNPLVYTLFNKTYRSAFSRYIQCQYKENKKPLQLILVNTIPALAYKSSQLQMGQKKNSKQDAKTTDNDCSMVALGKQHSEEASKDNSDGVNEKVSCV
Description: as §1, §2
5-HT2A Receptor Binding Assay.
Radioligand binding was performed using membranes from CHO K1 cells stably transfected with the human 5-HT2A receptor (PerkinElmer). All assays were carried out in duplicates. 50 μl working solution of the tested compounds, 50 μl [3H]-ketanserin (final concentration 1 nM) and 150 μl diluted membranes (7 μg protein per well) prepared in assay buffer (50 mM Tris, pH 7.4, 4 mM CaCl2, 0.1% ascorbic acid) were transferred to polypropylene 96-well microplate using 96-wells pipetting station Rainin Liquidator (MettlerToledo). Mianserin (10 μM) was used to define nonspecific binding. Microplate was covered with a sealing tape, mixed and incubated for 60 minutes at 27° C. The reaction was terminated by rapid filtration through GF/B filter mate presoaked with 0.5% polyethyleneimine for 30 minutes. Ten rapid washes with 200 μl 50 mM Tris buffer (4° C., pH 7.4) were performed using automated harvester system Harvester-96 MACH III FM (Tomtec). The filter mates were dried at 37° C. in forced air fan incubator and then solid scintilator MeltiLex was melted on filter mates at 90° C. for 5 minutes. Radioactivity was counted in MicroBeta2 scintillation counter (PerkinElmer). Data were fitted to a one-site curve-fitting equation with Prism 6 (GraphPad Software) and Ki values were estimated from the Cheng-Prusoff equation.

human GPCR 5-HT6 = human GPCR 5-HT6 (Homo sapiens, UniProt P50406); assay: Cellular aequorin-based functional assay, 5-HT6; format: cell-based; conditions: for 5-HT6 AGO EC50 [nM]: agonist mode, CHO-K1 aequorin cells; for Kb: antagonist mode, reference agonist serotonin 40 nM (EC80), read-out: 5-HT6 ANT Kb
Sequence of human GPCR 5-HT6 (P50406 whole entry): as the sequence (P50406 whole entry) above
Description: as §1
(§3) 1 mM stock solutions of the tested compounds were prepared in DMSO. Serial dilutions were prepared in 96-well microplate in assay buffers using automated pipetting system epMotion 5070 (Eppendorf). Two independent experiments in duplicates were performed and 6 to 10 concentrations were tested.
(§4) 5-HT2A and 5-HT6 Functional Activity Assays.
(§5) Cellular aequorin-based functional assays were performed with γ-irradiated recombinant CHO-K1 cells expressing mitochondrially-targeted Aequorin, human GPCR (5-HT2A or 5-HT6) and the promiscuous G protein α16 (PerkinElemer). Assays were performed according to the standard protocol provided by the manufacturer. After thawing, cells were transferred to assay buffer (DMEM/HAM's F12 with 0.1% protease-free BSA) and centrifuged. Cell pellet was resuspended in assay buffer and coelenterazine h was added at final concentrations of 5 μM. Cell suspension was incubated at 21° C., protected from light with constant agitation, for 4 hours and then diluted with assay buffer to a concentration of 250,000 cells/ml. After 1 hour incubation 50 yl cell suspension was dispensed using automatic injectors built in radiometric and luminescence plate counter MicroBeta2 LumiJET (PerkinElmer, USA) into white opaque 96-well microplate preloaded with tested compounds. Immediate light emission generated following calcium mobilization was recorded for 30-60 seconds. In antagonist mode, after 15-30 minutes incubation reference agonist was added to the above assay mix and light emission was recorded again. Final concentration of reference agonist was equal EC80: serotonin 40 nM for 5-HT6 receptor and α-methylserotonin 30 nM for 5-HT2A receptor. The assays were performed in the agonist mode (5-HT6 AGO and 5-HT2A AGO) as well as antagonist mode (5-HT6 ANT and 5-HT2A ANT).
(§6) IC50 and EC50 were determined by non-linear regression analysis using GraphPad Prism 6.0 software. The log IC50 was used to obtain the Kb by applying the Cheng-Prusoff approximation.

human GPCR 5-HT2A = human GPCR 5-HT2A (Homo sapiens, UniProt P28223); assay: Cellular aequorin-based functional assay, 5-HT2A; format: cell-based; conditions: for 5-HT2A AGO EC50 [nM]: agonist mode, CHO-K1 aequorin cells
Sequence of human GPCR 5-HT2A (P28223 whole entry): as the sequence (P28223 whole entry) above
Description: as §1, §3, §4, §5, §6

5-HT6 receptors [2] = biological target: T1, 5-HT6 receptors; conditions: cited from earlier work
[3] = membranes from CHO K1 cells with human 5-HT2A receptor, [3H]-ketanserin 1 nM, read-out: 5-HT2A Ki
[4] = antagonist mode, reference agonist α-methylserotonin 30 nM (EC80), read-out: 5-HT2A ANT Kb

Structure (SMILES)	Ki (5-HT6 receptors [1]) [nM]	Ki (human 5-HT2A receptor; [3]) [nM]	5-HT6 AGO EC50 [nM] (human GPCR 5-HT6)	Kb (human GPCR 5-HT6) [nM]	5-HT2A AGO EC50 [nM] (human GPCR 5-HT2A)	Kb (human GPCR 5-HT2A; [4]) [nM]	Ki (human 5-HT2A receptor) [nM]	Kb (human GPCR 5-HT2A) [nM]	affinity for the 5-HT6 receptors (5-HT6 receptors [2])
CN1CCN(c2cccc3c2cc(C(F)(F)F)n3Cc2ccsc2)CC1 [Compound 32, 4-(4-methylpiperazin-1-yl)-1-(thiophen-3-ylmethyl)-2-(trifluoromethyl)-1H-indole]	0.061	2.3	N.C.	0.37	N.C.	11			
CN1CCN(c2cccc3c2cc(C(F)(F)F)n3Cc2cccs2)CC1 [Compound 33, 4-(4-methylpiperazin-1-yl)-1-(thiophen-2-ylmethyl)-2-(trifluoromethyl)-1H-indole]	0.069	0.17	N.C.	0.28	N.C.	9.7			
FC(F)(F)c1cc2c(N3CCNCC3)cccc2n1Cc1ccccc1 [Compound 12, 1-benzyl-4-(piperazin-1-yl)-2-(trifluoromethyl)-1H-indole]	0.29		N.C.	0.49	N.C.		2.1	31	
Fc1ccc(Cn2c(C(F)(F)F)cc3c(N4CCNCC4)cccc32)cc1F [Compound 25, 1-(3,4-difluorobenzyl)-4-(piperazin-1-yl)-2-(trifluoromethyl)-1H-indole]	0.37	0.71	N.C.	0.65	N.C.	20			
CC(C)COc1ccc(CNC(=O)N(Cc2ccc(F)cc2)C2CCN(C)CC2)cc1 [pimavanserin]									no affinity
CN1CCN(c2cccc3c2cc(C(F)(F)F)n3Cc2cccc(F)c2)CC1 [Compound 24, 1-[(3-fluorophenyl)methyl]-4-(4-methylpiperazin-1-yl)-2-(trifluoromethyl)-1H-indole]	0.092	0.73	N.C.	1.1	N.C.	28			
